Assay results from patent US20170232083A1, “METHODS OF DIAGNOSIS AND TREATMENT OF CELIAC DISEASE IN CHILDREN” (priority 2014, published 2017).

System: PBMC (polyclonal gluten-specific T cells) of paediatric and adult CD patients
Assay: IFN-γ ELISpot of PBMC after 3 day oral wheat challenge (SFU, % of maximal peptide response, dominance scores, EC50; Examples 5-6)
Format: cell-based, human
Settings: for Cross-reactive T cell response: following wheat challenge; for IFN-γ ELISpot response: after oral wheat challenge
[1] = subject I (3-5yrs/6-10yrs part)
[2] = subject J (3-5yrs/6-10yrs part)
[3] = subject K (3-5yrs/6-10yrs part)
[4] = subject V (3-5yrs/6-10yrs part)
[5] = subject W (3-5yrs/6-10yrs part)
[6] = subject Y (3-5yrs/6-10yrs part)
[7] = subject five (3-5yrs/6-10yrs part)
[8] = subject seven (3-5yrs/6-10yrs part)
[9] = subject six (3-5yrs/6-10yrs part)
[10] = subject ten (3-5yrs/6-10yrs part)
[11] = subject two (3-5yrs/6-10yrs part)

In the case of PEQPFPEQPQPYPQQP, the “Cross-reactive T cell response” value (subject A, 11-17yrs) is reported as 2 SFU, the “Cross-reactive T cell response” value (subject D, 11-17yrs) is reported as 2 SFU and the “Significant response as a percentage of maximal peptide SFU” value (from here on “Significant response as a percentage”) (subject E, 11-17yrs) is reported as “(6-10% - ^)”. The “Cross-reactive T cell response” value (subject E, 11-17yrs) was 13 SFU, the “Cross-reactive T cell response” value (subject F, 11-17yrs) was 6 SFU and the “Cross-reactive T cell response” value (subject G, 11-17yrs) was 2 SFU. For the same sequence, the “Cross-reactive T cell response” value (subject H) was 6 SFU, the “Cross-reactive T cell response” value [1] was 2 SFU and the “Significant response as a percentage” value (subject J) was “′ (11-20% = ′)”. For the same sequence, the “Cross-reactive T cell response” value [2] was 36 SFU, the “Cross-reactive T cell response” value [3] was 6 SFU and the “Cross-reactive T cell response” value (subject P, 11-17yrs) was 10 SFU. For the same sequence, the “Cross-reactive T cell response” value (subject Q, 11-17yrs) was 2 SFU, the “Cross-reactive T cell response” value (subject T, 11-17yrs) was 0 SFU and the “Cross-reactive T cell response” value (subject U, 11-17yrs) was 1 SFU. For the same sequence, the “Cross-reactive T cell response” value [4] was 1 SFU, the “Cross-reactive T cell response” value [5] was 9 SFU and the “Cross-reactive T cell response” value [6] was 1 SFU. For the same sequence, the “Cross-reactive T cell response” value [7] was 1 SFU, the “Cross-reactive T cell response” value (subject nine, 11-17yrs) was 1 SFU and the “Cross-reactive T cell response” value [8] was 4 SFU. The “Cross-reactive T cell response” value [9] was 5 SFU, the “Significant response as a percentage” value (subject ten) was “+ (>70% = +)” and the “Cross-reactive T cell response” value [10] was 12 SFU. For the same sequence, the “Cross-reactive T cell response” value [11] was 1 SFU.
PEQPFQPEQPFPQQ was tested, and the “Cross-reactive T cell response” value (subject A, 11-17yrs) was 2 SFU, the “Cross-reactive T cell response” value (subject D, 11-17yrs) was 1 SFU and the “Significant response as a percentage” value (subject E, 11-17yrs) was “(6-10% - ^)”. For the same sequence, the “Cross-reactive T cell response” value (subject E, 11-17yrs) was 12 SFU, the “Cross-reactive T cell response” value (subject F, 11-17yrs) was 6 SFU and the “Cross-reactive T cell response” value (subject G, 11-17yrs) was 5 SFU. For the same sequence, the “Cross-reactive T cell response” value (subject H) was 3 SFU, the “Cross-reactive T cell response” value [1] was 1 SFU and the “Significant response as a percentage” value (subject J) was “′ (11-20% = ′)”. For the same sequence, the “Cross-reactive T cell response” value [2] was 31 SFU, the “Cross-reactive T cell response” value [3] was 8 SFU and the “Cross-reactive T cell response” value (subject P, 11-17yrs) was 9 SFU. For the same sequence, the “Cross-reactive T cell response” value (subject Q, 11-17yrs) was 7 SFU, the “Significant response as a percentage” value (subject T, 11-17yrs) was “′ (11-20% = ′)” and the “Cross-reactive T cell response” value (subject T, 11-17yrs) was 11 SFU. For the same sequence, the “Cross-reactive T cell response” value (subject U, 11-17yrs) was 6 SFU, the “Cross-reactive T cell response” value [4] was 7 SFU and the “Cross-reactive T cell response” value [5] was 3 SFU. For the same sequence, the “Cross-reactive T cell response” value [6] was 1 SFU, the “Cross-reactive T cell response” value [7] was 3 SFU and the “Cross-reactive T cell response” value (subject nine, 11-17yrs) was 0 SFU. For the same sequence, the “Cross-reactive T cell response” value [8] was 7 SFU, the “Cross-reactive T cell response” value [9] was 2 SFU and the “Significant response as a percentage” value (subject ten) was “+ (>70% = +)”. The “Cross-reactive T cell response” value [10] was 12 SFU and the “Cross-reactive T cell response” value [11] was 6 SFU.
For PEQPQPFPEQPVPQQP, the “Cross-reactive T cell response” value (subject A, 11-17yrs) was 3 SFU, the “Cross-reactive T cell response” value (subject D, 11-17yrs) was 3 SFU and the “Cross-reactive T cell response” value (subject E, 11-17yrs) was 4 SFU. For the same sequence, the “Cross-reactive T cell response” value (subject F, 11-17yrs) was 6 SFU, the “Cross-reactive T cell response” value (subject G, 11-17yrs) was 1 SFU and the “Cross-reactive T cell response” value (subject H) was 0 SFU. The “Cross-reactive T cell response” value [1] was 0 SFU, the “Cross-reactive T cell response” value [2] was 7 SFU and the “Cross-reactive T cell response” value [3] was 4 SFU. For the same sequence, the “Cross-reactive T cell response” value (subject P, 11-17yrs) was 8 SFU, the “Cross-reactive T cell response” value (subject Q, 11-17yrs) was 6 SFU and the “Cross-reactive T cell response” value (subject T, 11-17yrs) was 5 SFU. The “Cross-reactive T cell response” value (subject U, 11-17yrs) was 1 SFU, the “Cross-reactive T cell response” value [4] was 3 SFU and the “Cross-reactive T cell response” value [5] was 4 SFU. For the same sequence, the “Cross-reactive T cell response” value [6] was 2 SFU, the “Cross-reactive T cell response” value [7] was 0 SFU and the “Cross-reactive T cell response” value (subject nine, 11-17yrs) was 0 SFU. The “Cross-reactive T cell response” value [8] was 4 SFU, the “Cross-reactive T cell response” value [9] was 2 SFU and the “Significant response as a percentage” value (subject ten) was “+ (>70% = +)”. The “Cross-reactive T cell response” value [10] was 11 SFU and the “Cross-reactive T cell response” value [11] was 3 SFU.
With PEQTFPEQPQLPF the “IFN-γ ELISpot response” value (patient A, 11-17 yrs, cut-off 10 SFU) was 3 SFU, the “IFN-γ ELISpot response” value (patient E, H, 11-17 yrs, cut-off 10 SFU) was 19 SFU and the “Significant response as percentage of maximal peptide SFU” value (shortened to “Significant response as percentage”) (patient E, max peptide 224 SFU) was “(6-10% = ^)”. The “IFN-γ ELISpot response” value (patient F, 11-17 yrs, cut-off 10 SFU) was 1 SFU, the “IFN-γ ELISpot response” value (patient G, 11-17 yrs, cut-off 10 SFU) was 15 SFU and the “Significant response as percentage” value (patient G, max peptide 15 SFU) was “+ (>70% = +)”. The “IFN-γ ELISpot response” value (patient H (HLA-DQ2.5 homozygote), 3-5yrs, cut-off 10 SFU) was 2 SFU, the “IFN-γ ELISpot response” value (patient H, 11-17 yrs, cut-off 10 SFU) was 9 SFU and the “IFN-γ ELISpot response” value (patient ID not given, 11-17 yrs, cut-off 10 SFU) was 0 SFU. For the same sequence, the “Significant response as percentage” value (patient J, max peptide 196 SFU) was “+ (>70% = +)”, the “Significant response as percentage” value (patient K, max peptide 53 SFU) was “′′′ (41-70% = ′′′)” and the “IFN-γ ELISpot response” value (patient N, 3-5yrs, cut-off 10 SFU) was 1 SFU. The “IFN-γ ELISpot response” value (patient P, 11-17 yrs, cut-off 21.6 SFU) was 4 SFU, the “IFN-γ ELISpot response” value (patient Q, 11-17 yrs, cut-off 10 SFU) was 2 SFU and the “IFN-γ ELISpot response” value (patient U, H, 11-17 yrs, cut-off 10 SFU) was 1 SFU. For the same sequence, the “IFN-γ ELISpot response” value (patient V, 6-10 yrs, cut-off 10 SFU) was 4 SFU, the “IFN-γ ELISpot response” value (patient Y, 6-10 yrs, cut-off 10 SFU) was 1 SFU and the “IFN-γ ELISpot response” value (patient eleven, 6-10 yrs, cut-off 10 SFU) was 0 SFU. For the same sequence, the “IFN-γ ELISpot response” value (patient four, 3-5yrs, cut-off 10 SFU) was 0 SFU, the “IFN-γ ELISpot response” value (patient seven, 6-10 yrs, cut-off 10.5 SFU) was 4 SFU and the “IFN-γ ELISpot response” value (patient ten, 3-5yrs, cut-off 10 SFU) was 4 SFU. For the same sequence, the “IFN-γ ELISpot response” value (patient three, 6-10 yrs, cut-off 10.5 SFU) was 179 SFU, the “IFN-γ ELISpot response” value (patient twelve, 11-17 yrs, cut-off 10 SFU) was 0 SFU and the “IFN-γ ELISpot response” value (patient two, 3-5yrs, cut-off 10 SFU) was 1 SFU.
